Measurements taken from patent publication US6737383B1, “Herbicidal oxadiazolidines” (priority 1999, dated 2004).

Experiments:
bedstraw = test: Test B pre/postemergence bedstraw; type: in vivo, Galium aparine
Method in brief: (§1)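 Herbicidal effect was estimated by eye on a ten-point control scale after plants spent twelve to sixteen days in a greenhouse following soil or foliar treatment. Foliar sprays targeted plants at one to four leaves; all doses were formulated in a non-phytotoxic solvent with surfactant.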

blackgrass = test: Test B pre/postemergence blackgrass; type: in vivo, Alopecurus myosuroides
Method in brief: as §1

surinam grass = test: Test B pre/postemergence surinam grass; type: in vivo, Brachiaria decumbens
Method in brief: as §1

corn = test: Test B pre/postemergence corn; type: in vivo, Zea mays
Method in brief: as §1

giant foxtail = test: Test B pre/postemergence giant foxtail; type: in vivo, Setaria faberii
Method in brief: as §1

morningglory = test: Test B pre/postemergence morningglory; type: in vivo, Ipomoea hederacea
Method in brief: as §1

pigweed = test: Test B pre/postemergence pigweed; type: in vivo, Amaranthus retroflexus
Method in brief: as §1

rape = test: Test B pre/postemergence rape; type: in vivo, Brassica napus
Method in brief: as §1

soybean = test: Test B pre/postemergence soybean; type: in vivo, Glycine max
Method in brief: as §1

sugar beet = test: Test B pre/postemergence sugar beet; type: in vivo, Beta vulgaris
Method in brief: as §1

velvetleaf = test: Test B pre/postemergence velvetleaf; type: in vivo, Abutilon theophrasti
Method in brief: as §1

purple nutsedge = test: Test B pre/postemergence purple nutsedge; type: in vivo, Cyperus rotundus
Method in brief: as §1

rice = test: Test B flood test rice; type: in vivo, Oryza sativa
Method in brief: (§2)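 Read-out is a visual response score from 0 (no effect) to 10 (complete control), assigned by comparison with untreated controls. Treatment was applied at the 2-leaf stage, and plants stayed in the greenhouse for twelve to sixteen days before scoring.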

smallflower flatsedge = test: Test B flood test smallflower flatsedge; type: in vivo, Cyperus difformis
Method in brief: as §2

duck salad = test: Test B flood test duck salad; type: in vivo, Heteranthera limosa
Method in brief: as §2

bamyardgrass = test: Test B flood test barnyardgrass; type: in vivo, Echinochloa crus-galli
Method in brief: as §2

[1] = Postemergence, Rate 62 g/ha, scale 0 to 10, 0 is no effect, 10 is complete control
[2] = Postemergence, Rate 250 g/ha, scale 0 to 10, 0 no effect, 10 complete control
[3] = Postemergence, Rate 1000 g/ha, scale 0 to 10 (0 no effect, 10 complete control)
[4] = Preemergence, Rate 31 g/ha, visual rating, scale 0 to 10 (0 no effect, 10 complete control)
[5] = Preemergence, Rate 62 g/ha, scale 0 to 10, 0 is no effect, 10 is complete control
[6] = Preemergence, Rate 125 g/ha, scale 0 to 10 (0 no effect, 10 complete control)
[7] = Preemergence, Rate 250 g/ha, scale of 0 to 10 where 0 is no effect and 10 is complete control
[8] = Preemergence, Rate 500 g/ha, scale 0 (no effect) to 10 (complete control)
[9] = Rate 31 g/ha, Postemergence, scale 0 to 10
[10] = Rate 125 g/ha, Postemergence, scale 0 to 10, 0 no effect, 10 complete control
[11] = Rate 500 g/ha, Postemergence, 0 to 10 scale (0 no effect, 10 complete control)
[12] = Rate 1000 g/ha, Preemergence, scale 0 to 10 (0 no effect, 10 complete control)
[13] = Rate 31 g/ha, Postemergence section (flood test species), scale 0 to 10
[14] = Rate 125 g/ha, Postemergence section (flood test species), scale 0 to 10, 0 no effect, 10 complete control
[15] = Rate 500 g/ha, Postemergence section of Table B, 0 to 10 scale (0 no effect, 10 complete control)
[16] = flood test, listed under Postemergence, Rate 250 g/ha, scale 0 to 10, 0 no effect, 10 complete control

SMILES: Cc1ccccc1-n1c(=O)on(C(=O)N(c2ccc(F)cc2)C(C)C)c1=O [Compound 4]
- Bedstraw plant response rating (bedstraw; [1]): 0
- Bedstraw plant response rating (bedstraw; [2]): 7
- Bedstraw plant response rating (bedstraw; [3]): 8
- Bedstraw plant response rating (bedstraw; [4]): 0
- Plant response rating, Bedstraw (bedstraw; [5]): 0
- Plant response rating, Bedstraw (bedstraw; [6]): 1
- Plant response rating, Bedstraw (bedstraw; [7]): 4
- Bedstraw plant response rating (bedstraw; [8]): 4
- Bedstraw plant response rating (bedstraw; [9]): 0
- Bedstraw plant response rating (bedstraw; [10]): 5
- Bedstraw plant response rating (bedstraw; [11]): 7
- Plant response rating, Bedstraw (bedstraw; [12]): 6
- Blackgrass plant response rating (blackgrass; [1]): 0
- Blackgrass plant response rating (blackgrass; [2]): 5
- Blackgrass plant response rating (blackgrass; [3]): 6
- Blackgrass plant response rating (blackgrass; [4]): 0
- Plant response rating, Blackgrass (blackgrass; [5]): 0
- Plant response rating, Blackgrass (blackgrass; [6]): 6
- Plant response rating, Blackgrass (blackgrass; [7]): 8
- Blackgrass plant response rating (blackgrass; [8]): 8
- Blackgrass plant response rating (blackgrass; [9]): 0
- Blackgrass plant response rating (blackgrass; [10]): 4
- Blackgrass plant response rating (blackgrass; [11]): 6
- Plant response rating, Blackgrass (blackgrass; [12]): 10
- B. signalgrass plant response rating (surinam grass; [1]): 0
- B. signalgrass plant response rating (surinam grass; [2]): 0
- B. signalgrass plant response rating (surinam grass; [3]): 4
- B. signalgrass plant response rating (surinam grass; [4]): 0
- Plant response rating, B. signalgrass (surinam grass; [5]): 0
- Plant response rating, B. signalgrass (surinam grass; [6]): 7
- Plant response rating, B. signalgrass (surinam grass; [7]): 8
- B. signalgrass plant response rating (surinam grass; [8]): 9
- B. signalgrass plant response rating (surinam grass; [9]): 0
- B. signalgrass plant response rating (surinam grass; [10]): 0
- B. signalgrass plant response rating (surinam grass; [11]): 2
- Plant response rating, B. signalgrass (surinam grass; [12]): 10
- Corn plant response rating (corn; [1]): 0
- Corn plant response rating (corn; [2]): 0
- Corn plant response rating (corn; [3]): 0
- Corn plant response rating (corn; [4]): 0
- Plant response rating, Corn (corn; [5]): 0
- Plant response rating, Corn (corn; [6]): 0
- Plant response rating, Corn (corn; [7]): 0
- Corn plant response rating (corn; [8]): 0
- Corn plant response rating (corn; [9]): 0
- Corn plant response rating (corn; [10]): 0
- Corn plant response rating (corn; [11]): 0
- Plant response rating, Corn (corn; [12]): 0
- Giant foxtail plant response rating (giant foxtail; [1]): 0
- Giant foxtail plant response rating (giant foxtail; [2]): 3
- Giant foxtail plant response rating (giant foxtail; [3]): 6
- Giant foxtail plant response rating (giant foxtail; [4]): 8
- Plant response rating, Giant foxtail (giant foxtail; [5]): 9
- Plant response rating, Giant foxtail (giant foxtail; [6]): 9
- Plant response rating, Giant foxtail (giant foxtail; [7]): 10
- Giant foxtail plant response rating (giant foxtail; [8]): 10
- Giant foxtail plant response rating (giant foxtail; [9]): 0
- Giant foxtail plant response rating (giant foxtail; [10]): 5
- Giant foxtail plant response rating (giant foxtail; [11]): 4
- Plant response rating, Giant foxtail (giant foxtail; [12]): 10
- Morningglory plant response rating (morningglory; [1]): 0
- Morningglory plant response rating (morningglory; [2]): 3
- Morningglory plant response rating (morningglory; [3]): 3
- Morningglory plant response rating (morningglory; [4]): 0
- Plant response rating, Morningglory (morningglory; [5]): 0
- Plant response rating, Morningglory (morningglory; [6]): 0
- Plant response rating, Morningglory (morningglory; [7]): 0
- Morningglory plant response rating (morningglory; [8]): 0
- Morningglory plant response rating (morningglory; [9]): 0
- Morningglory plant response rating (morningglory; [10]): 2
- Morningglory plant response rating (morningglory; [11]): 3
- Plant response rating, Morningglory (morningglory; [12]): 0
- Redroot pigweed plant response rating (pigweed; [1]): 0
- Redroot pigweed plant response rating (pigweed; [2]): 5
- Redroot pigweed plant response rating (pigweed; [3]): 8
- Redroot pigweed plant response rating (pigweed; [4]): 0
- Plant response rating, Redroot pigweed (pigweed; [5]): 2
- Plant response rating, Redroot pigweed (pigweed; [6]): 5
- Plant response rating, Redroot pigweed (pigweed; [7]): 8
- Redroot pigweed plant response rating (pigweed; [9]): 0
- Redroot pigweed plant response rating (pigweed; [10]): 4
- Redroot pigweed plant response rating (pigweed; [11]): 7
- Plant response rating, Redroot pigweed (pigweed; [12]): 8
- Rape plant response rating (rape; [1]): 0
- Rape plant response rating (rape; [2]): 0
- Rape plant response rating (rape; [3]): 3
- Rape plant response rating (rape; [4]): 0
- Plant response rating, Rape (rape; [5]): 0
- Plant response rating, Rape (rape; [6]): 0
- Plant response rating, Rape (rape; [7]): 6
- Rape plant response rating (rape; [8]): 0
- Rape plant response rating (rape; [9]): 0
- Rape plant response rating (rape; [10]): 0
- Rape plant response rating (rape; [11]): 2
- Plant response rating, Rape (rape; [12]): 3
- Soybean plant response rating (soybean; [1]): 2
- Soybean plant response rating (soybean; [2]): 4
- Soybean plant response rating (soybean; [3]): 5
- Soybean plant response rating (soybean; [4]): 0
- Plant response rating, Soybean (soybean; [5]): 0
- Plant response rating, Soybean (soybean; [6]): 0
- Plant response rating, Soybean (soybean; [7]): 0
- Soybean plant response rating (soybean; [8]): 0
- Soybean plant response rating (soybean; [10]): 4
- Plant response rating, Soybean (soybean; [12]): 1
- Sugarbeets plant response rating (sugar beet; [1]): 0
- Sugarbeets plant response rating (sugar beet; [2]): 3
- Sugarbeets plant response rating (sugar beet; [3]): 4
- Sugarbeets plant response rating (sugar beet; [4]): 0
- Plant response rating, Sugarbeets (sugar beet; [5]): 0
- Plant response rating, Sugarbeets (sugar beet; [6]): 7
- Plant response rating, Sugarbeets (sugar beet; [7]): 8
- Sugarbeets plant response rating (sugar beet; [8]): 3
- Sugarbeets plant response rating (sugar beet; [10]): 2
- Plant response rating, Sugarbeets (sugar beet; [12]): 4
- Velvetleaf plant response rating (velvetleaf; [1]): 0
- Velvetleaf plant response rating (velvetleaf; [2]): 3
- Velvetleaf plant response rating (velvetleaf; [3]): 7
- Velvetleaf plant response rating (velvetleaf; [4]): 0
- Plant response rating, Velvetleaf (velvetleaf; [5]): 0
- Plant response rating, Velvetleaf (velvetleaf; [6]): 0
- Plant response rating, Velvetleaf (velvetleaf; [7]): 0
- Velvetleaf plant response rating (velvetleaf; [8]): 0
- Velvetleaf plant response rating (velvetleaf; [10]): 3
- Plant response rating, Velvetleaf (velvetleaf; [12]): 0
- Nutsedge plant response rating (purple nutsedge; [1]): 0
- Nutsedge plant response rating (purple nutsedge; [2]): 0
- Nutsedge plant response rating (purple nutsedge; [3]): 0
- Nutsedge plant response rating (purple nutsedge; [4]): 0
- Plant response rating, Nutsedge (purple nutsedge; [5]): 0
- Plant response rating, Nutsedge (purple nutsedge; [6]): 0
- Plant response rating, Nutsedge (purple nutsedge; [7]): 0
- Nutsedge plant response rating (purple nutsedge; [8]): 0
- Nutsedge plant response rating (purple nutsedge; [9]): 0
- Nutsedge plant response rating (purple nutsedge; [10]): 0
- Nutsedge plant response rating (purple nutsedge; [11]): 0
- Plant response rating, Nutsedge (purple nutsedge; [12]): 0
- Rice plant response rating (rice; [1]): 0
- Rice plant response rating (rice; [3]): 0
- Rice plant response rating (rice; [13]): 0
- Rice plant response rating (rice; [14]): 0
- Rice plant response rating (rice; [15]): 0
- Rice plant response rating (rice; [16]): 0
- S. Flatsedge plant response rating (smallflower flatsedge; [1]): 0
- S. Flatsedge plant response rating (smallflower flatsedge; [3]): 4
- S. Flatsedge plant response rating (smallflower flatsedge; [14]): 0
- S. Flatsedge plant response rating (smallflower flatsedge; [16]): 2
- Ducksalad plant response rating (duck salad; [1]): 0
- Ducksalad plant response rating (duck salad; [3]): 3
- Ducksalad plant response rating (duck salad; [13]): 0
- Ducksalad plant response rating (duck salad; [14]): 0
- Ducksalad plant response rating (duck salad; [15]): 2
- Ducksalad plant response rating (duck salad; [16]): 2
- Barnyardgrass plant response rating (bamyardgrass; [1]): 0
- Barnyardgrass plant response rating (bamyardgrass; [3]): 4
- Barnyardgrass plant response rating (bamyardgrass; [13]): 0
- Barnyardgrass plant response rating (bamyardgrass; [14]): 0
- Barnyardgrass plant response rating (bamyardgrass; [15]): 4
- Barnyardgrass plant response rating (bamyardgrass; [16]): 3
